Publication PMC12036747, “Effects of galloflavin and ellagic acid on sirtuin 6 and its anti-tumorigenic activities” (Biomedicine & pharmacotherapy = Biomedecine & …, 2020)

How the values were obtained:
Format in all cases: biochemical
SIRT2 = target: T1, SIRT2 (Homo sapiens, UniProt Q8IXJ6); assay: Fluor de Lys deacetylation assay, inhibition at […]
T1 sequence (Q8IXJ6 2-389): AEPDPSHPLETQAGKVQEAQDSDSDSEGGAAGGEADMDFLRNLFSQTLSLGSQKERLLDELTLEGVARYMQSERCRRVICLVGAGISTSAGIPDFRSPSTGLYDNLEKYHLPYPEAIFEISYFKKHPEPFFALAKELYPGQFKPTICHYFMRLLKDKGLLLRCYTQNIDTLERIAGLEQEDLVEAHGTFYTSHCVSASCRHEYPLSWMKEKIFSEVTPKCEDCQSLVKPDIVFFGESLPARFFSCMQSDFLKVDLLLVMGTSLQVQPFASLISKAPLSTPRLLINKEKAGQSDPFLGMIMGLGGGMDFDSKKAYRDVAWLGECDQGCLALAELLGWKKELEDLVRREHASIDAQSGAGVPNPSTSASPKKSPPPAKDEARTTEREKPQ

SIRT3 = target: T2, SIRT3 (Homo sapiens, UniProt Q9NTG7); assay: Fluor de Lys deacetylation assay, moderate inhibition at […]
T2 sequence (Q9NTG7 102-399): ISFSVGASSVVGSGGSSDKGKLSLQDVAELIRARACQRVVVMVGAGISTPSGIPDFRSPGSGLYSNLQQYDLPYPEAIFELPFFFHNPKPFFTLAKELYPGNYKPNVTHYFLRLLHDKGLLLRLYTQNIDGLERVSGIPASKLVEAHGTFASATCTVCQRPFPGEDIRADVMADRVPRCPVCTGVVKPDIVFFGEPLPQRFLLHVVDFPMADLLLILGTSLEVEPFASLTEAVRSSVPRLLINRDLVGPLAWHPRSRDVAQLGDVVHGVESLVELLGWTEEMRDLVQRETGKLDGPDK

SIRT1 = target: T3, SIRT1 (Homo sapiens, UniProt Q96EB6); assay: as above
T3 sequence (Q96EB6 2-747): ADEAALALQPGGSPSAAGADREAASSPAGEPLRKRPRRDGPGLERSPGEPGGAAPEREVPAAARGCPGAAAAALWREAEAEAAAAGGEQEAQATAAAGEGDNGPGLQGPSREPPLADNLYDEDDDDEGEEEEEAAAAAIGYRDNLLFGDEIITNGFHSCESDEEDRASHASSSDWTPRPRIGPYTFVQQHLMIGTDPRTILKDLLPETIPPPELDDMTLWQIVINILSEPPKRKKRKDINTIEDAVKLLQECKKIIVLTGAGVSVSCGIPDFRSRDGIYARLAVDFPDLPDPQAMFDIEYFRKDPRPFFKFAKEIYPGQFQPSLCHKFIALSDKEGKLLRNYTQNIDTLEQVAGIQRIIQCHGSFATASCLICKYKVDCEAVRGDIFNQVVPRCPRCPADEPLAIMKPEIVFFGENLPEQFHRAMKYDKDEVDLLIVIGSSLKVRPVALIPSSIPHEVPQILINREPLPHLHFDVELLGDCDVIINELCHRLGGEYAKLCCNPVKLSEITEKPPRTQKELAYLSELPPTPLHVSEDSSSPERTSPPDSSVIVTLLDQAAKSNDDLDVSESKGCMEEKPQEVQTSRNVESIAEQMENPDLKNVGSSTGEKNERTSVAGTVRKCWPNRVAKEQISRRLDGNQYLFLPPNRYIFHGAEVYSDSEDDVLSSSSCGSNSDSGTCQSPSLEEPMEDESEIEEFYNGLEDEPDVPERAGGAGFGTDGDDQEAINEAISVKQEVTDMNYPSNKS

Sirtuin 6 (SIRT6) [1] = target: T4, Sirtuin 6 (SIRT6) (Homo sapiens, UniProt Q8N6T7); assay: HPLC deacetylation assay with H3K9Ac peptide (activation); immunoblot with core histones; Michaelis-Menten kinetics
T4 construct: recombinant GST-tagged human SIRT6
T4 sequence (Q8N6T7 2-355): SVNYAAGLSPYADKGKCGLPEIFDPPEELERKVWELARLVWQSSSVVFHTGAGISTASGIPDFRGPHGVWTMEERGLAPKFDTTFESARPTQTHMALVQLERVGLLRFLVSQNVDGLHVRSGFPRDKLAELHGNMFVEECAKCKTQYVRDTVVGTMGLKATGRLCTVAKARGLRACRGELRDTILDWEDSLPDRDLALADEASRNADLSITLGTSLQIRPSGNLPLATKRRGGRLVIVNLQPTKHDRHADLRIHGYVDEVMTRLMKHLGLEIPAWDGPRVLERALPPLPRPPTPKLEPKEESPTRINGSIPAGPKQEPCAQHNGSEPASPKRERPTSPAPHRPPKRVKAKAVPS

Sirtuin 6 (SIRT6) [2] = target: T4, Sirtuin 6 (SIRT6); assay: HPLC deacetylation assay with H3K9Ac peptide (activation); immunoblot with core histones

## O=c1oc2c(O)c(O)cc3c(=O)oc4c(O)c(O)cc1c4c23 [Ellagic acid]
SIRT2
  %: up to 60 % inhibition at 100 μM
SIRT3
  Fluor de Lys deacetylation assay, moderate inhibition at 100 μM: Galloflavin and Ellagic acid displayed moderate inhibition against SIRT1 and SIRT3
SIRT1
  Fluor de Lys deacetylation assay, moderate inhibition at 100 μM: Galloflavin and Ellagic acid displayed moderate inhibition against SIRT1 and SIRT3
Sirtuin 6 (SIRT6) [1]
  EC50: 25 µM

## O=c1oc2c(cc1O)oc(=O)c1cc(O)c(O)c(O)c12 [Galloflavin]
SIRT2
  %: up to 60 % inhibition at 100 μM
Sirtuin 6 (SIRT6) [2]
  EC50: 79 µM
SIRT3
  Fluor de Lys deacetylation assay, moderate inhibition at 100 μM: Galloflavin and Ellagic acid displayed moderate inhibition against SIRT1 and SIRT3
SIRT1
  Fluor de Lys deacetylation assay, moderate inhibition at 100 μM: Galloflavin and Ellagic acid displayed moderate inhibition against SIRT1 and SIRT3
